Structures can show the parent of a compound that is named as a salt.
Tested on: monoclonal antibodies raised against BSA–Ia
Test: Specificity of the monoclonal antibodies by competitive ELISA
Assay type: binding, mice
Settings: for recognition by the antibodies: competitors tested separately (without derivatization)
From the text: The high affinity of the rabbit antisera for patulin after its transformation into adduct I motivated us to pursue the production of monoclonal antibodies (mAbs), given their high value in industry for the development of rapid commercial assays. To this end, standard hybridoma technology was employed with splenocytes from mice immunized with the bioconjugate BSA–Ia, the immunogen that elicited the best response in rabbits (Supporting Information). From two independent cell fusion experiments, three antibody-producing hybridomas capable of recognizing adduct I were generated. Following affinity purification, the mAbs were characterized by direct and indirect competitive ELISA using the homologous and the heterologous conjugate, i.e., based on hapten Ia or Ib, respectively. As summarized in Table S2, the three antibodies successfully recognized both coating conjugates (OVA–Ia and OVA–Ib), yielding IC50 values for patulin below 7.0 nM. […] In the direct competitive format, even better IC50 values were found with mAbs #13 and #17 when used with the homologous enzyme tracer HRP–Ia (IC50 = 0.7–0.8 nM). […]
dissolved in 8‐10 mL of 20 mM phosphate buffer, pH 7.4, and filtered through a nitrocellulose membrane (0.45 μm pore diameter). The resulting filtrate was purified by affinity chromatography with a 5 mL HiTrap Protein G HP column, and the antibody‐containing fractions were gathered and the buffer was exchanged to 20 mM phosphate buffer, pH 7.4, using Amicon Ultra 4 10k centrifugal devices. Final antibody concentration was calculated using the absorption at 280 nm and a molar extinction coefficient of 1.4 L g‐1 c m ‐1. The purified antibodies were precipitated with 1 volume of saturated ammonium sulphate for long‐term storage at 4 °C. […]
Antibody‐coated direct competitive ELISA. […] Following incubation during 10 min at rt, the reaction was stopped by adding 100 µL per well of 1 M H2SO4, and the absorbance was […]
Following incubation during 10 min at rt, the reaction was stopped by adding 100 µL per well of 1 M H2SO4, and the absorbance was immediately read. […]

Structure (SMILES) | recognition by the antibodies | inhibition curves compared with patulin after reacting with 7a (adduct I or derivatized patulin used as competitors)
O=C1C=C2C(=CCOC2O)O1 (stereo not drawn) [patulin] | did not recognize | –
O=C/C(CC(=O)O)=C1\Sc2ccccc2S[C@H]1CO [adduct I] | – | overlapped
[Na][S]c1ccccc1[S][Na] [7a, sodium salt of benzene-1,2-dithiol] | did not recognize | –

Reference: publication PMC11295118, “Harnessing the Intrinsic Chemical Reactivity of the Mycotoxin Patulin for Immunosensing” (Analytical Chemistry, 2024)
